{"source": "paper PMC5825169", "about": "(PLoS Pathogens, 2018)", "molecules": {"B1": {"name": "bovine asialofetuin (natural protein)", "chain": "IPLDPVAGYKEPACDDPDTEQAALAAVDYINKHLPRGYKHTLNQIDSVKVWPRRPTGEVYDIEIDTLETTCHVLDPTPLANCSVRQQTQHAVEGDCDIHVLKQDGQFSVLFTKCDSSPDSAEDVRKLCPDCPLLAPLNDSRVVHAVEVALATFNAESNGSYLQLVEISRAQFVPLPVSVSVEFAVAATDCIAKEVVDPTKCNLLAEKQYGFCKGSVIQKALGGEDVRVTCTLFQTQPVIPQPQPDGAEAEAPSAVPDAAGPTPSAAGPPVASVVVGPSVVAVPLPLHRAHYDLRHTFSGVASVESSSGEAFHVGKTPIVGQPSIPGGPVRLCPGRIRYFKI", "modifications": "three glycosylation sites occupied by heterogeneous mixtures of bi- and tri-antennary glycans (asialo form)"}}, "key": {"RbmC2 β-prism domain [1]": {"molecular_target": "T1, RbmC2 β-prism domain (Vibrio cholerae, UniProt Q9KTH2)", "assay": "biochemical", "type": "binding"}, "[2]": {"molecular_target": "T2, VCC β-prism lectin domain (Vibrio cholerae serotype O1, UniProt P09545)", "assay": "biochemical", "type": "binding"}, "RbmC1 β-prism domain": {"molecular_target": "RbmC1 β-prism domain (Vibrio cholerae, UniProt Q9KTH2)", "assay": "biochemical", "type": "binding"}, "[3]": {"molecular_target": "T2, VCC β-prism lectin domain", "settings": "read-out: VCC β-prism affinity; cited from earlier work"}, "RbmC2 β-prism domain [4]": {"molecular_target": "T1, RbmC2 β-prism domain", "assay": "biochemical", "type": "binding", "settings": "RbmC2 β-prism affinity"}, "[5]": {"molecular_target": "T2, VCC β-prism lectin domain", "assay": "biochemical", "type": "binding", "remark": "listed apart in the source"}, "[6]": {"molecular_target": "RbmC2-GFPUV fusion (Vibrio cholerae El Tor strain N16961)", "assay": "ITC"}, "[7]": {"molecular_target": "RbmC1-GFPUV fusion (Vibrio cholerae El Tor strain N16961)", "assay": "ITC"}}, "note": "“And” between values parts separate entries of the source, which are not always exact repeats. Equal entries are not always repeated. “Also recorded” adds a separate entry of the source. Where two headings read alike, the source gives them in different places.", "data": [{"molecule": "CC(=O)N[C@H]1[C@H](O[C@@H]2C(O)O[C@H](CO)[C@@H](O)[C@@H]2O)O[C@H](CO)[C@@H](O)[C@@H]1O", "note": "(stereo partly drawn) [GlcNAc-Man, N-acetylglucosaminyl-β-1,2-mannose]", "values": [{"measurement": "Kd", "setting": "RbmC2 β-prism domain [1]; RbmC2 β-prism affinity", "result": 159, "unit": "µM"}]}, {"molecule": "CC(=O)N[C@H]1C(O)O[C@H](CO)[C@@H](O[C@@H]2O[C@H](CO)[C@H](O)[C@H](O)[C@H]2O)[C@@H]1O", "note": "(stereo partly drawn) [LacNAc, N-acetyl-D-lactosamine]", "values": [{"measurement": "VCC β-prism binding", "setting": "[2]", "result": "Did not bind; also recorded: unable to detect binding"}, {"measurement": "RbmC1 β-prism binding", "setting": "RbmC1 β-prism domain", "result": "Did not bind; also recorded: unable to observe binding"}, {"measurement": "RbmC2 β-prism binding", "setting": "RbmC2 β-prism domain [1]", "result": "Did not bind; also recorded: unable to observe binding"}]}, {"molecule": "OC[C@H]1O[C@H](OC[C@H]2OC(O)[C@@H](O)[C@@H](O[C@H]3O[C@H](CO)[C@@H](O)[C@H](O)[C@@H]3O)[C@@H]2O)[C@@H](O)[C@@H](O)[C@@H]1O", "note": "(stereo partly drawn) [Mannotriose, 1,3-α-1,6-α-D-mannotriose]", "values": [{"measurement": "Kd", "setting": "[2]", "result": 229, "unit": "µM"}, {"measurement": "Kd", "setting": "RbmC1 β-prism domain; RbmC1 β-prism affinity", "result": 0.6, "unit": "µM"}, {"measurement": "Kd", "setting": "RbmC2 β-prism domain [1]; RbmC2 β-prism affinity", "result": 4.1, "unit": "µM"}]}, {"molecule": "CO[C@H]1O[C@H](CO)[C@@H](O)[C@H](O)[C@@H]1O", "note": "[Me-α-mannose, methyl α-D-mannopyranoside]", "values": [{"measurement": "Kd", "setting": "[3]", "result": 2.7, "unit": "mM"}, {"measurement": "Kd", "setting": "RbmC1 β-prism domain; RbmC1 β-prism affinity", "result": "503 µM and 179 µM"}, {"measurement": "Kd", "setting": "RbmC2 β-prism domain [1]; RbmC2 β-prism affinity", "result": "179 µM and 503 µM"}]}, {"molecule": "CC(=O)N[C@H]1[C@H](O[C@H]2[C@H](O)[C@@H](NC(C)=O)C(O)O[C@@H]2CO)O[C@H](CO)[C@@H](O[C@@H]2O[C@H](CO[C@H]3O[C@H](CO)[C@@H](O)[C@H](O)[C@@H]3O[C@@H]3O[C@H](CO)[C@@H](O)[C@H](O)[C@H]3NC(C)=O)[C@@H](O)[C@H](O[C@H]3O[C@H](CO)[C@@H](O)[C@H](O)[C@@H]3O[C@@H]3O[C@H](CO)[C@@H](O)[C@H](O)[C@H]3NC(C)=O)[C@@H]2O)[C@@H]1O", "note": "(some centres unmarked) [NGA2, GlcNAcβ1-2Manα1-6(GlcNAcβ1-2Manα1–3)Manβ1-4GlcNAcβ1-4GlcNAc]", "values": [{"measurement": "Kd", "setting": "RbmC2 β-prism domain [4]", "result": "1.5 ± 0.5", "unit": "nM"}, {"measurement": "Kd", "setting": "[5]", "result": 200, "unit": "nM"}]}, {"molecule": "CC(=O)N[C@H]1[C@H](O[C@@H]2[C@@H](OC[C@H]3OC(O)[C@@H](O)[C@@H](O[C@H]4O[C@H](CO)[C@@H](O)[C@H](O)[C@@H]4O[C@@H]4O[C@H](CO)[C@@H](O)[C@H](O)[C@H]4NC(C)=O)[C@@H]3O)O[C@H](CO)[C@@H](O)[C@@H]2O)O[C@H](CO)[C@@H](O)[C@@H]1O", "note": "(some centres unmarked) [Pentasaccharide, N-linked core pentasaccharide]", "values": [{"measurement": "Kd", "setting": "RbmC2 β-prism domain [4]", "result": "1.1 nM and 1.5 nM"}]}, {"molecule": "Asialofetuin", "values": [{"measurement": "Kd", "setting": "RbmC1 β-prism domain; read-out: RbmC1 β-prism affinity (apparent)", "result": 0.0159, "unit": "µM"}, {"measurement": "Kd", "setting": "RbmC2 β-prism domain [1]; read-out: RbmC2 β-prism affinity (apparent)", "result": 0.0184, "unit": "µM"}]}, {"molecule": "B1", "values": [{"measurement": "Kd", "setting": "[6]", "result": 18.4, "unit": "nM"}, {"measurement": "Kd", "setting": "[7]", "result": 15.9, "unit": "nM"}]}]}
